Results from patent US7176322B2, “Calcium receptor modulating agents” (Amgen Inc., priority 2002, dated 2007).

Molecular target: T1, human parathyroid cell Ca2+ receptor (hPCaR) (Homo sapiens, UniProt P41180)
T1 construct: expressed in transfected cells
T1 sequence (P41180 20-1078): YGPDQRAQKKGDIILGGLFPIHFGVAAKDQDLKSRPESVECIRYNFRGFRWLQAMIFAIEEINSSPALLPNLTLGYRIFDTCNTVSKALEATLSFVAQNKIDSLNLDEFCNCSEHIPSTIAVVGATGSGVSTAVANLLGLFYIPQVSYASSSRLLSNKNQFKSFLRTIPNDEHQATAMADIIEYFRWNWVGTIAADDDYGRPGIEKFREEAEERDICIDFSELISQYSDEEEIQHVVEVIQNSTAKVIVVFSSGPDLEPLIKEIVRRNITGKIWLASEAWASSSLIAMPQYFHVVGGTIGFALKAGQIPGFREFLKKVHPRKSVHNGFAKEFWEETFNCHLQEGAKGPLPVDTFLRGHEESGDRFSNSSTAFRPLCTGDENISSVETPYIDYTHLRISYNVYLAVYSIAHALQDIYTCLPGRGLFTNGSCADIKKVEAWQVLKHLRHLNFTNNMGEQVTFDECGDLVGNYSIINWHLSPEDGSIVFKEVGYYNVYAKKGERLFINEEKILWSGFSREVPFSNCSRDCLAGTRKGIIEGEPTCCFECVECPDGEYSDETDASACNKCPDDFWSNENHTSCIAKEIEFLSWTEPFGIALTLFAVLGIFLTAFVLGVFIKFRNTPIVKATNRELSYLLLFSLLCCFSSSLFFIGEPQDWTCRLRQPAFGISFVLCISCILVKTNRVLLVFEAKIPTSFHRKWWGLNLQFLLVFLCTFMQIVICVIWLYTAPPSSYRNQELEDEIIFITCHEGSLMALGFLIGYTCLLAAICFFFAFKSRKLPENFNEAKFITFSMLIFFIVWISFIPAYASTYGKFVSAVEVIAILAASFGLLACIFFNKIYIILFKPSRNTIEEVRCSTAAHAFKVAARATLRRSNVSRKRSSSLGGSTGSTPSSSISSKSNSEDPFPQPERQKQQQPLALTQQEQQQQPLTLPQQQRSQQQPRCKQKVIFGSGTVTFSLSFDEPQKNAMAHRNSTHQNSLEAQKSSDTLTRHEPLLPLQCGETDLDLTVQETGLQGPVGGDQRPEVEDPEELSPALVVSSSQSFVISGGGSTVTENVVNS
Assay: [Ca2+]i measurement (fluo-3 fluorescence) in HEK 293 4.0-7 cells stably transfected with hPCaR
Assay type: cell-based
Conditions: HEK 293 4.0-7 cells expressing hPCaR; fluo-3, excitation 485 nm / emission 530 nm
Description: The activities of the compounds of the present invention on calcium receptors were measured. In one embodiment, the measurement was performed in accordance with the method described in Example 4 of Nemeth et al., PCT/US95/13704 (International Publication No. WO96/12697) herein incorporated by reference.
A 4.0-kb NotI-HindIII fragment of the human parathyroid cell Ca^2+ receptor (hPCaR) cDNA was subcloned into the mammalian expression vector pCEP4 (Invitrogen) containing the hygromycin-resistant gene as a selectable marker. This plasmid was transfected into HEK 293 cells by calcium phosphate precipitation. Transfected cells were grown in Dulbecco's modified Eagle's medium containing 10% fetal bovine serum and hygromycin (200 μg/mL). Hygromycin-resistant colonies were subcloned and assayed for hPCaR mRNA by solution hybridization using a ^32P-labeled RNA probe complementary to the (4.0 kb) hPCaR sequence (Garrett, et al., J. Biol. Chem. 270, 12919–12925 (1995)). Clone 7 was used to assess the effects of compounds on [Ca^2+]i. This stably transfected cell line is termed HEK 293 4.0–7. For measurements of [Ca^2+]i, the cells were recovered from tissue culture flasks by brief treatment with 0.02% EDTA and then washed and resuspended in PCB containing 1 mM CaCl2 and 0.1% Bovine Serum Albumin (“BSA”). The cells were loaded with fluo-3 by incubation for 30 min at 37° C., with parathyroid cell buffer (126 mM NaCl, 4 mM KCl, 1 mM MgSO4, 0.7 mM K2HPO4/KH2PO4, 20 mM HEPES.NaOH (pH 7.45)) containing 0.5% BSA in 1 mM CaCl2 and 2 μM fluo-3 acetoxymethyl ester. The cells were subsequently washed, each test compound was added to the cells and the fluorescence was recorded by using excitation and emission wavelengths of 485 and 530 nm, respectively.

EC50, ≤ 10 µM:
CCn1c2ccccc2c2cc(CN[C@H](C)c3ccccc3)ccc21 [Example 17, (R)-N-(1-(Phenyl)ethyl)-N-(9-ethyl-3-carbazolylmethyl)amine]
CCn1c2ccc(CN[C@H](C)c3cccc(OC)c3)cc2c2cc(OC)ccc21 [Example 8, (R)-N-(1-(3-Methoxyphenyl)ethyl)-N-(9-ethyl-6-methoxy-3-carbazolylmethyl)amine]
CCn1nc2ccc(CN[C@H](C)c3cccc(OC)c3)cc2n1 [Example 5, (R)-N-(1-(3-Methoxyphenyl)ethyl)-N-(2′-ethyl-benzotriazol-5-ylmethyl)amine]
CCn1cc(-c2ccccc2)c2cc(CN[C@H](C)c3ccccc3)ccc21 [Example 28, (1R)-N-((1-ethyl-3-phenyl-1H-indol-5-yl)methyl)-1-phenylethanamine]
CCn1c2c(c3cc(CN[C@H](C)c4ccccc4)ccc31)CCC2 [Example 10]
CCn1nc2ccc(CN[C@H](C)c3cccc4ccccc34)cc2n1 [Example 4, (R)-N-(1-(1-Naphthyl)ethyl)-N-(2′-ethyl-benzotriazol-5-ylmethyl)amine]
CCn1c2c(c3cc(CN[C@H](C)c4ccccc4)ccc31)COCC2 [Example 19]
CCn1c2c(c3cc(CN[C@H](C)c4cccc(OC)c4)ccc31)COCC2 [Example 20]
C[C@@H](NCc1ccc2c(c1)ncn2C)c1ccccc1 [Example 12, (R)-N-(1-(Phenyl)ethyl)-N-((1-methylbenzimidazol-5-yl)methyl)amine]
CCn1nc2ccc(CN[C@H](C)c3ccccc3)cc2n1 [Example 6, (R)-N-(1-(Phenyl)ethyl)-N-(2′-ethyl-benzotriazol-5-ylmethyl)amine]
CCn1c2c(c3cc(CN[C@H](C)c4cccc(OC)c4)ccc31)CN(C)CC2 [Example 14]
C[C@@H](NCc1ccc2[nH]ccc2c1)c1cccc2ccccc12 [Example 25, (1R)-N-(1H-indol-5-ylmethyl)-1-(1-naphthalenyl)ethanamine]
C[C@@H](NCc1ccc2c(c1)ncn2C)c1cccc2ccccc12 [Example 11, (R)-N-(1-(1-Naphthyl)ethyl)-N-((1-methylbenzimidazol-5-yl)methyl)amine]
CCn1cc(-c2ccc(OC(F)(F)F)cc2)c2cc(CN[C@H](C)c3ccccc3)ccc21 [Example 29, (1R)-N-((1-ethyl-3-(4-((trifluoromethyl)oxy)phenyl)-1H-indol-5-yl)methyl)-1-phenylethanamine]
CCn1c2c(c3cc(CN[C@H](C)c4cccc5ccccc45)ccc31)COCC2 [Example 21]
CCn1c2c(c3cc(CN[C@H](C)c4ccccc4)ccc31)CN(C)CC2 [Example 13]
CCn1c2ccccc2c2cc(CN[C@H](C)c3cccc4ccccc34)ccc21 [(R)-N-(1-(1-Naphthyl)ethyl)-N-(9-ethyl-3-carbazolylmethyl)amine]
C[C@@H](NCc1ccc2c(c1)c1ccccc1n2CCCN(C)C)c1cccc2ccccc12 [Example 24]
CCn1c2ccccc2c2cc(CN[C@H](C)c3cccc(OC)c3)ccc21 [(R)-N-(1-(3-Methoxyphenyl)ethyl)-N-(9-ethyl-3-carbazolylmethyl)amine]
CCn1ccc2cc(CN[C@H](C)c3cccc4ccccc34)ccc21 [Example 18, (R)-N-(1-(1-Naphthyl)ethyl)-N-((1-ethylindole-5-yl)methyl)amine]
